The target of series [1] is T1, insulin receptor (Rattus norvegicus, UniProt P15127). Description: Insulin receptor tyrosine phosphorylation in hippocampal neuronal cultures. In kind it is cell-based. Also on record: endogenous in cells; host or cells: rat primary hippocampal and cortical neuronal cultures. Conditions: for tyrosine phosphorylation of the insulin receptor: substance alone; for tyrosine phosphorylation of the insulin receptor / insulin-stimulated insulin receptor tyrosine phosphorylation: hippocampal neurons; for insulin-stimulated insulin receptor tyrosine phosphorylation: ADDLs with 100 nM insulin. As to the method:
The insulin receptor was immunoprecipitated by an antibody against the β subunit of the insulin receptor. The precipitated proteins were then detected on separate western blots by an anti-phosphotyrosine antibody and an anti-insulin receptor β subunit antibody, respectively. The ratio of phosphorylated and regular receptors was calculated after densitometry scan and compared among different treatments.
(§1) The tyrosine phosphorylation extent of insulin receptor was examined by precipitating insulin receptor with anti-insulin receptor antibody followed by blotting with anti-pTyr antibody on western blots.
(§2) Upon termination of the reaction, the extracellular medium was removed and cell lysates were prepared with a lysis buffer. The tyrosine phosphorylation of insulin receptor was assessed by immunoprecipitation of insulin receptor with a specific anti-insulin receptor antibody, followed by blotting the precipitated receptor with an anti-tyrosine antibody.

Series [2] relates to cells over-expressing insulin receptor. Description: ADDL uptake and clearance by cells over-expressing insulin receptor. The class given is cell-based. An excerpt:
The amount of oligomeric Aβ peptide assemblies present in cell lysates and culture medium is presented.
Total ADDL levels were higher than other treatment conditions. […] In the presence of insulin, ADDLs were internalized and detected in the center of the intracellular compartment. In the presence of AG1024, the majority of ADDLs were retained in the extracellular compartment.

Series [3] concerns cultured cortical neurons. Description: ADDL uptake in cultured cortical neurons (western blot of medium, immunoprecipitation of lysates). In kind it is cell-based. As to the method: Primary cortical cultures were prepared from 1-day old pups and maintained in serum-free neurobasal A medium complemented with 2% B-27, […] L-glutamine and 5 μg/mL bFGF. Synthetic oligomeric Aβ peptide assemblies (100 nM) were applied to cultured cortical neurons and incubated at 37° C. for 30 minutes. […] After separation on SDS-PAGE, the precipitated oligomeric Aβ peptide assemblies were detected on western blots with 6E10 antibody. The bar graph (mean±SE) summarizes data from four independent replicated treatments.
(§3) ADDL Uptake and Clearance by Neurons Occurs Via Insulin Receptor Signaling. […] Extracellular ADDL levels were measured on western blots using a concentrated medium. […] On the other hand, the intracellular ADDLs were detected by immunoprecipitation (FIG. 2B). […] This uptake, however, was prevented by […] (FIG. 2B, lane 5, 6).

Series [4] concerns hippocampal neurons. Nature of the series: ADDL uptake in hippocampal neurons. In kind it is cell-based. As to the method: as §3
For series [5], the system named is hippocampal neurons. Description: MTT cell viability assay after ADDL/insulin treatment. In kind it is cell-based. In general terms: Formazan colour is commonly taken as a measure of viable cells.
In series [6] the test system is hippocampal neurons. Nature of the series: ADDL binding to hippocampal neurons after insulin pre-incubation. Conditions: for prevention of ADDL binding to hippocampal neurons: then 100 nM ADDLs. The class given is cell-based. The text has this: This possibility seems unlikely, however, given the abundance of insulin receptors in cell bodies of ADDL-exposed neurons.

Series [7] deals with T1, insulin receptor. Description: Insulin receptor tyrosine phosphorylation in cortical neuronal cultures. In kind it is cell-based. Also on record: endogenous in cells; host or cells: rat primary hippocampal and cortical neuronal cultures. Conditions: cortical neurons. The method, then:
as §1, §2

The subject of series [8] is Akt. Description: Akt ser473 phosphorylation in cortical neurons. The class given is cell-based. Conditions: 6 hours. The text has this: (§4) Equalized total amount of protein from soluble cell lysates were separated on SDS-PAGE, and pAkt ser473 detected on western blots with a specific antibody against pAkt ser473. Identical samples transferred to a separate membrane were detected with an anti-total Akt (rAkt) antibody for internal normalization. The normalized pAkt extent from each experimental condition was converted to percent control and analyzed with one-way ANOVA, **P<0.01.
(§5) In the presence ADDLs, however, there was an increase in pAkt ser473. […] To test whether inhibition of phosphatase 2A (PP2A) causes a similar enhancement of pAkt ser473, the cortical neurons were pre-treated with okadaic acid (OA), a potent PP2A/PP1 inhibitor at a concentration (10 nM) preferentially inhibiting PP2A.

The target of series [9] is T2, insulin receptor (Homo sapiens, UniProt P06213). Description: Effect of insulin signaling blockers on insulin-stimulated insulin receptor phosphorylation. The class given is cell-based. An excerpt:
These assays are validated via the use of control compounds such as insulin signaling and receptor antagonists and insulin sensitizers.

Series [10] has as its target T2, insulin receptor. Nature of the series: ADDL breakdown by cells over expressing human insulin receptor. In kind it is cell-based. Also on record: expressed in transfected cells. Conditions: inhibition of insulin receptor.
The subject of series [11] is IRS1. Nature of the series: IRS1 serine307 phosphorylation in hippocampal neuronal cultures. In kind it is cell-based. The settings on record: 150 nM ADDLs, 60 minutes. An excerpt: Equal amount of total proteins from soluble cell lysates from each condition was separated on SDS-PAGE and transferred to nitrocellulose membranes. The phosphorylation extent of IRS1 Ser307 was detected with an anti-IRS1 PSer307 antibody. Identical samples on a separate membrane were blotted with an anti-total amount of IRS1 (rIRS1). The immunoreactivities of pIRS1(Ser307) were normalized with those of rIRS1. Values from each experimental group were converted to percent control and analyzed with one-way ANOVA, ***p<0.0001; **p<0.01.

Series [12] concerns Akt. Nature of the series: Akt ser473 phosphorylation in hippocampal neurons. The class given is cell-based. The settings on record: 1 hour post-ADDL/INS treatment.
From the text: as §4, §5

The test system of series [13] is MAP kinase. Nature of the series: Insulin-induced MAP kinase phosphorylation. In kind it is cell-based. Conditions: ADDL treatment. An excerpt:
Identified herein is a signaling loop in which molecular pathology of AD and type II diabetes can be interconnected.

In series [14] the target is T2, insulin receptor. Description: Ligand blotting of ADDLs to precipitated insulin receptor. Also on record: expressed in transfected cells. In kind it is binding. The settings on record: 100 nM ADDLs; receptors from cells with and without insulin treatment. The text has this:
The cell lysates were subjected to co-immunoprecipitation, in which a specific anti-ADDL antibody (20C2) was used to precipitated ADDLs and proteins that complexed with ADDLs. This was followed by detection of insulin receptor from precipitated proteins on a western blot. […] To test whether the ADDL-insulin receptor interaction is direct, the human insulin receptors from insulin receptor expressing cells with and without insulin treatment were precipitated with an anti-insulin receptor antibody.

The target of series [15] is T1, insulin receptor. Description: Insulin receptor (IRα) immunofluorescence in mature hippocampal neurons after ADDL treatment. The class given is cell-based. Also on record: endogenous in cells; host or cells: cultures of mature hippocampal neurons. The settings on record: 100 nM ADDLs, 30 minutes. The method, then: ADDLs were added to cultures at 100 nM and incubated for 30 minutes to allow for complete binding. […] Insulin receptors, identified using antibodies against the outward-directed alpha sub-unit, also distributed in a punctate manner.
To investigate whether ADDLs cause IR impairment, changes in neuronal IR levels following ADDL treatment were analyzed. […] To detect neuronal surface IR, an antibody recognizing the alpha subunit of IR (IRα) localized on the extracellular membrane layer. Abundant IRα immunoreactivity was detected in cultured hippocampal neurons, which was particularly concentrated on the membrane of soma and dendrites. After treated with 100 nM ADDLs for 30 minutes, however, there was a drastic change in IRα immunostaining pattern with a substantial reduction of IRα from dendrites but an increase in the cell body. […] The increased cytosolic IRα immunoreactivity implicates internalization of the receptor. Loss of IRα occurred specifically to ADDL attacked dendrites. […] Similar to the above experiment, ADDLs were added to cultures at 100 nM and incubated for 30 minutes to allow for complete binding.
The down-regulation of IR is likely due to internalization the receptor by ADDLs.

For series [16], the target named is T1, insulin receptor. Description: Serine phosphorylation of insulin receptor in hippocampal neurons. In kind it is cell-based. The arrangement: endogenous in cells; host or cells: rat primary hippocampal and cortical neuronal cultures. The settings on record: 150 nM ADDLs, 60 minutes. As to the method: The cell lysates were subjected to immunoprecipitation using an anti-insulin receptor antibody. The precipitated insulin receptors were analyzed by western blot with an anti-phosphoserine antibody to detect the serine phosphorylation extent of insulin receptor (pSer-IR). The pSer-IR extent was normalized with the total amount of precipitated insulin receptor. Each condition was converted to percent control before analyzed one-way ANOVA, **p<0.01.

Series [17] deals with T2, insulin receptor. The settings on record: cited from earlier work.
The mark [18] stands for this setting: cells pretreated with inhibitor before ADDL and insulin.

The values that follow come from US7964359B2, “Compositions and methods for the enhancement of soluble amyloid beta oligomer (ADDL) uptake and clearance” (Acumen Pharmaceuticals, Inc., priority 2006, dated 2011).

T1 sequence (P15127 27-759 limits assumed): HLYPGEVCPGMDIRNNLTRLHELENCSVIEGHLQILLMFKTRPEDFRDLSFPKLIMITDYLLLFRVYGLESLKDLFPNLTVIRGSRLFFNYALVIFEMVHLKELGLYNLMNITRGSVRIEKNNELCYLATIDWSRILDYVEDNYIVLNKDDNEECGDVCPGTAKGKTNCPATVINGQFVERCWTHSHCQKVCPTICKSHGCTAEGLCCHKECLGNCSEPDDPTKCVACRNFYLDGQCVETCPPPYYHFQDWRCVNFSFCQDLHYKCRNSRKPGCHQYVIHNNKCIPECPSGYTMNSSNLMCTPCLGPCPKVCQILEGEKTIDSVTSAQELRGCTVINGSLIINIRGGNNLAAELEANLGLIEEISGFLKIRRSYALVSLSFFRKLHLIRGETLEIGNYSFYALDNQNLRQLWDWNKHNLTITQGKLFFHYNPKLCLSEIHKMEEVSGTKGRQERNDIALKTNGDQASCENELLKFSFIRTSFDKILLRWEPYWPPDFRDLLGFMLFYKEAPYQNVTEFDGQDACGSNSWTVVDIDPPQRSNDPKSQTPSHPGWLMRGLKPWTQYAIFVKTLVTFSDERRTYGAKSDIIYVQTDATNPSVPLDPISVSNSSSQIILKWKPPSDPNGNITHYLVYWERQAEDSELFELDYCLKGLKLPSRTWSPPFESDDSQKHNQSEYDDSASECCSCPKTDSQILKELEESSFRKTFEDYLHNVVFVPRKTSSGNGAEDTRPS
T1 sequence (P15127 764-1383 limits assumed): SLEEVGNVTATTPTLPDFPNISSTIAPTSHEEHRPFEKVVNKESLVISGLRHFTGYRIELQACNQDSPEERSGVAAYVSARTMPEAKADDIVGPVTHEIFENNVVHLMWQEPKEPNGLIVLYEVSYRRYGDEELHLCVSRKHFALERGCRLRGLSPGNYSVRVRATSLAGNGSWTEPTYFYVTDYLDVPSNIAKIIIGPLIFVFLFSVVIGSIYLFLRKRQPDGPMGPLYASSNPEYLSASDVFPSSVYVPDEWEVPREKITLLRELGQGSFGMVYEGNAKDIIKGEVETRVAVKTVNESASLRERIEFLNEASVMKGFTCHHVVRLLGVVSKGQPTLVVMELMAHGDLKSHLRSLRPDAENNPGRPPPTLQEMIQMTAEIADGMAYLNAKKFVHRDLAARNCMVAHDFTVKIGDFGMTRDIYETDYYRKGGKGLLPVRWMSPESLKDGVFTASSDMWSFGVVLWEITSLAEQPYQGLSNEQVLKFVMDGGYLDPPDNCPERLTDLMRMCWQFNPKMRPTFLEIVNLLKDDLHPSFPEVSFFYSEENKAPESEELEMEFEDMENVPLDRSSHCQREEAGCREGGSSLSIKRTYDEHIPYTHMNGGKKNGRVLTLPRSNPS

Take `CC(=O)OCOC(=O)CN(CC(=O)OCOC(C)=O)c1ccccc1OCCOc1ccccc1N(CC(=O)OCOC(C)=O)CC(=O)OCOC(C)=O` [BAPTA-AM, 1,2-bis(o-aminophenoxy)ethane-N,N,N′,N′-tetraacetic acid tetra(acetoxymethyl)ester]: in [1] (100-150 nM ADDLs, neuronal depolarization and glutamate stimulation), the “ADDL inhibition of insulin-stimulated IR tyrosine phosphorylation under chelation of intracellular Ca2+” value is given as “could be rescued”.
Consider insulin, for which the “total amount of ADDLs” value in series [2] (100 nM ADDL with insulin, P<0.01) was “significantly reduced”. The “ADDL uptake (ADDL levels in cell lysates up, extracellular medium down)” value in series [2] (100 nM ADDL, 100 nM insulin) is given as “stimulated ADDL uptake”. The “ADDL oligomers in the cell lysate fractions” value in [3] (100 nM ADDLs, immunoprecipitation with 6E10) is “increase of ADDL oligomers”. Besides, in [4], the “ADDL uptake into hippocampal neurons” value was “stimulated a striking ADDL uptake into hippocampal neurons in a clear dose-response manner”. In addition, in [4] (hippocampal neurons), the “aggregated ADDLs in the extracellular medium” value was “reduced aggregated ADDLs in the extracellular medium in a dose-response manner”. In addition, in series [5] (ADDLs/insulin for 4 hours), the “cell viability (MTT)” value is on record as “no apparent toxic effects”. Besides, the “ADDL binding and its effects” value in series [6] (insulin 1 micromolar, 30 minutes before ADDLs) is reported as “blocked”. Also, the “prevention of ADDL binding to hippocampal neurons” value in [6] (pre-incubation with 100 nM insulin) is approximately 40%; in series [6] (pre-incubation with 1 μM insulin) it was approximately 70%. The “tyrosine phosphorylation of the insulin receptor” value in series [1] is on record as “marked increases in insulin receptor tyrosine phosphorylation”; in [1] (listed as Insulin) it was “stimulated an increase in tyrosine phosphorylation”. Besides, the “insulin receptor tyrosine phosphorylation” value in [7] (100 nM insulin) is “marked increases in insulin receptor tyrosine phosphorylation”.
Consider `C=C1[C@@H](O)[C@@H]2O[C@]3(CC[C@H](/C=C/[C@@H](C)[C@@H]4CC(C)=C[C@@]5(O[C@H](C[C@@](C)(O)C(=O)O)CC[C@H]5O)O4)O3)CC[C@H]2O[C@@H]1[C@@H](O)C[C@H](C)[C@H]1O[C@@]2(CCCCO2)CC[C@H]1C` [okadaic acid], for which the “duration of insulin-induced increase in pAkt ser473” value in series [8] was “prolonged the insulin-increased pAkt ser473”.
With `CC(C)(C)c1cc(C=C(C#N)C#N)cc(Br)c1O` [AG1024, tyrphostin AG1024], in [2] (setting [18]), the “ADDL aggregates in the extracellular medium” value was “markedly higher amount of ADDL aggregates in the extracellular medium” and the “insulin-stimulated ADDL internalization” value is given as “prevented”. The “ADDLs in the extracellular medium” value in series [3] (100 nM synthetic ADDLs, 37° C., 30 minutes) is listed as “striking aggregation of ADDLS”. The “insulin-induced ADDL uptake into cell lysate” value in series [3] (inhibitor included prior to ADDL treatment) is listed as “prevented”. In addition, the “insulin-stimulated insulin receptor phosphorylation” value in series [9] was “significantly inhibited”. Besides, the “ADDLs in the extracellular medium” value in [10] is listed as “striking accumulation of ADDLs in the extracellular medium”.
As for `O.O=C([O-])c1ccccc1-c1c2cc(I)c(=O)c(I)c-2oc2c(I)c([O-])c(I)cc12.[Na+].[Na+]` [erythrosin B], the “insulin-stimulated insulin receptor phosphorylation” value in series [9] is given as “significantly inhibited”.
“ADDLs: neurotoxic soluble oligomeric assemblies of Aβ 1-42, prepared from synthetic Aβ 1-42 peptide”: the “neuronal toxicity (MTT cell viability)” value in series [5] (ADDLs alone, varying treatment duration) was “cause neuronal toxicity in a treatment duration-dependent”. Moreover, the “IRS-1 serine 307 phosphorylation” value in series [11] is given as “increase in serine phosphorylation of IRS-1”. Besides, in series [12], the “insulin-induced pAkt Ser473” value is “enhancement of the insulin-induced pAkt Ser473”. In series [8], the “duration of insulin-induced increase in pAkt ser473” value is given as “significantly prolonged”. The “insulin-induced MAP kinase phosphorylation” value in series [13] is “significantly inhibited”. Besides, the “binding of ADDL to insulin receptor (ligand blot)” value in series [14] is on record as “strong binding of ADDL to insulin receptor was detected only in the activated but not the control insulin receptor”. The “insulin receptor immunoreactivity in cell bodies vs ADDL-free cells” value in series [15] was approximately 3 fold. Further, the “dendritic IRα fluorescent intensity” value in series [15] (P<0.01) was “significant loss of IRα immunoreactivity”. The “reduction of dendritic insulin receptor immunoreactivity vs ADDL-free cells” value in series [15] (image analysis) is on record as approximately 70%. Also, the “amount of the insulin receptor” value in [1] (ADDL treatment, hippocampal neuronal cultures) was “reduction in the amount of the insulin receptor”. The results for the “insulin-stimulated insulin receptor tyrosine phosphorylation” value in series [1], in series [1] (listed as ADDL) and in [1] (listed as soluble oligomeric Aβ peptide assemblies) were “significantly inhibited”, “abolished” and “significant inhibition”, respectively. In addition, in series [1], the “tyrosine phosphorylation of the insulin receptor” value was “increase in tyrosine phosphorylation of the insulin receptor”. The “insulin-induced insulin receptor tyrosine phosphorylation” value in series [7] (ADDLs 50-150 nM with 100 nM insulin) is listed as “significantly inhibited”. Also, the “serine phosphorylation of insulin receptor (pSer-IR)” value in series [16] is listed as “increase in serine phosphorylation of insulin receptor”.
Turning to `CN(C)C(=N)N=C(N)N` [Metformin], the “tyrosine kinase activity of the insulin receptor” value in [17] is “enhance the tyrosine kinase activity of the insulin receptor”.
